Reference: ChEMBL document CHEMBL2021773, “Isolation, structure elucidation, and antibacterial activity of methiosetin, a tetramic acid from a tropical sooty mold (Capnodium sp.)” (2012)
Values after ≈ are worked out from the molar mass of the structure shown. Active and inactive are the calls of the source. No cut-off for these calls is given here.

Columns and labels:
Staphylococcus aureus [1] = test: Potency ratio, ratio of methiosetin MIC to compound MIC for Staphylococcus aureus EP167 by two fold serial broth dilution method; format: functional
Staphylococcus aureus [2] = test: Antibacterial activity against Staphylococcus aureus EP167 by two fold serial broth dilution method; format: functional
Haemophilus influenzae = test: Antibacterial activity against Haemophilus influenzae by two fold serial broth dilution method; format: functional
Enterococcus faecalis = test: Antibacterial activity against Enterococcus faecalis at 64 ug/mL by two fold serial broth dilution method; format: functional, organism-based
Staphylococcus aureus [3] = test: Antibacterial activity against Staphylococcus aureus Smith at 64 ug/mL by two fold serial broth dilution method; format: functional, organism-based
Escherichia coli = test: Antibacterial activity against Escherichia coli at 64 ug/mL by two fold serial broth dilution method; format: functional, organism-based
Streptococcus pneumoniae = test: Antibacterial activity against Streptococcus pneumoniae at 64 ug/mL by two fold serial broth dilution method; format: functional, organism-based

Structure (SMILES)	Ratio (Staphylococcus aureus [1])	MIC (Staphylococcus aureus [2])	MIC (Haemophilus influenzae)	inhibition (Enterococcus faecalis)	inhibition (Staphylococcus aureus [3])	inhibition (Escherichia coli)	inhibition (Streptococcus pneumoniae)
O=C1C=C[C@H](O)[C@@H]2[C@@H]1C[C@@]13SS[C@]4(C[C@@H]5C(=O)C=C[C@H](O)[C@H]5N4C1=O)C(=O)N23 [EPICORAZINE A]	8	32 µg/mL (≈ 76.1 µM)	0.5 µg/mL (≈ 1.19 µM)				
CC(O)C1C(O)=C(C(=O)[C@H]2[C@@H]3CCCC[C@H]3C=C[C@H]2C)C(=O)N1C (some centres undefined) [METHIOSETIN]		256 µg/mL (≈ 768 µM)	32 µg/mL (≈ 96 µM)	inactive	inactive	inactive	inactive
